Test systems include Mtb. 234/2005 (MDR-TB); Mtb. 9449/2007 (MDR-TB); Mtb. Praha 1 (MDR-TB); Mtb. Praha 4 (MDR-TB); Mtb. 7357/1998 (MDR-TB); Mtb. 8666/2010 (MDR-TB); Mtb. Praha 131 (XDR-TB).
Common to all, as to test: microbe, parasite or virus in culture
Holding throughout (type): cell-based, Mycobacterium tuberculosis
Holding throughout (conditions): Mycobacterium tuberculosis

Where [1] appears, read: 336 h, read-out: MIC Mtb. 234/2005 14 d.
Where [2] appears, read: 504 h, read-out: MIC Mtb. 234/2005 21 d.
Where [3] appears, read: 336 h, read-out: MIC Mtb. 9449/2007 14 d.
The mark [4] stands for this setting: 504 h, read-out: MIC Mtb. 9449/2007 21 d.
The mark [5] stands for this setting: 336 h, read-out: MIC Mtb. Praha 1 14 d.
[6] abbreviates: 504 h, read-out: MIC Mtb. Praha 1 21 d.
[7] abbreviates: 336 h, read-out: MIC Mtb. Praha 4 14 d.
Setting [8] is: 504 h, read-out: MIC Mtb. Praha 4 21 d.
The mark [9] stands for this setting: 336 h, read-out: MIC Mtb. 7357/1998 14 d.
The mark [10] stands for this setting: 504 h, read-out: MIC Mtb. 7357/1998 21 d.
Where [11] appears, read: 336 h, read-out: MIC Mtb. 8666/2010 14 d.
Setting [12] is: 504 h, read-out: MIC Mtb. 8666/2010 21 d.
The mark [13] stands for this setting: 336 h, read-out: MIC Mtb. Praha 131 14 d.
Setting [14] is: 504 h, read-out: MIC Mtb. Praha 131 21 d.

This note sets out measurements from article PMC8703412 (Pharmaceuticals, 2021).

Converted amounts (≈) assume the structure as drawn. Where two headings read alike, the source gives them in different places.

As for `C/C(=N\NC(=O)c1ccncc1)C(=O)Sc1ccccc1` [3s, S-Phenyl (E)-2-(2-isonicotinoylhydrazineylidene)propanethioate], the MIC was found to be 32 µM (≈ 9.58 µg/mL) with Mtb. 234/2005 (MDR-TB) (setting [1]); 64 µM (≈ 19.2 µg/mL) in the assay with Mtb. 234/2005 (MDR-TB) (setting [2]); 64 µM (≈ 19.2 µg/mL) in the assay on Mtb. 9449/2007 (MDR-TB) (setting [3]); 64 µM (≈ 19.2 µg/mL) with Mtb. 9449/2007 (MDR-TB) (setting [4]); 64 µM (≈ 19.2 µg/mL) in the assay on Mtb. Praha 1 (MDR-TB) (setting [5]); 125 µM (≈ 37.4 µg/mL) in the assay on Mtb. Praha 1 (MDR-TB) (setting [6]). Further, the MIC with Mtb. Praha 4 (MDR-TB) (setting [7]) was 32 µM (≈ 9.58 µg/mL); in the assay on Mtb. Praha 4 (MDR-TB) (setting [8]), 64 µM (≈ 19.2 µg/mL); with Mtb. 7357/1998 (MDR-TB) (setting [9]) it was 32 µM (≈ 9.58 µg/mL); in the assay with Mtb. 7357/1998 (MDR-TB) (setting [10]), 64 µM (≈ 19.2 µg/mL); in the assay on Mtb. 8666/2010 (MDR-TB) (setting [11]) it was 32 µM (≈ 9.58 µg/mL); in the assay with Mtb. 8666/2010 (MDR-TB) (setting [12]) it was 32 µM (≈ 9.58 µg/mL). For the same compound, the results for the MIC with Mtb. Praha 131 (XDR-TB) (setting [13]) and in the assay with Mtb. Praha 131 (XDR-TB) (setting [14]) were 32 µM (≈ 9.58 µg/mL) and 64 µM (≈ 19.2 µg/mL), respectively.

For `C/C(=N\NC(=O)c1ccncc1)C(=O)OCCn1c([N+](=O)[O-])cnc1C` [3q, 2-(2-Methyl-5-nitro-1H-imidazol-1-yl)ethyl (E)-2-(2 isonicotinoylhydrazineylidene)propanoate], the MIC turned out to be 32 µM (≈ 11.5 µg/mL) in the assay with Mtb. 234/2005 (MDR-TB) (setting [1]); 32 µM (≈ 11.5 µg/mL) with Mtb. 234/2005 (MDR-TB) (setting [2]); 32 µM (≈ 11.5 µg/mL) in the assay with Mtb. 9449/2007 (MDR-TB) (setting [3]); 32 µM (≈ 11.5 µg/mL) in the assay with Mtb. 9449/2007 (MDR-TB) (setting [4]); 125 µM (≈ 45 µg/mL) in the assay with Mtb. Praha 1 (MDR-TB) (setting [5]); 125 µM (≈ 45 µg/mL) in the assay with Mtb. Praha 1 (MDR-TB) (setting [6]). The MIC in the assay with Mtb. Praha 4 (MDR-TB) (setting [7]) came to 32 µM (≈ 11.5 µg/mL); with Mtb. Praha 4 (MDR-TB) (setting [8]) it was 32 µM (≈ 11.5 µg/mL); in the assay on Mtb. 7357/1998 (MDR-TB) (setting [9]), 16 µM (≈ 5.77 µg/mL); in the assay with Mtb. 7357/1998 (MDR-TB) (setting [10]), 32 µM (≈ 11.5 µg/mL); in the assay on Mtb. 8666/2010 (MDR-TB) (setting [11]), 16 µM (≈ 5.77 µg/mL); in the assay on Mtb. 8666/2010 (MDR-TB) (setting [12]) it was 16 µM (≈ 5.77 µg/mL). Moreover, the MIC in the assay with Mtb. Praha 131 (XDR-TB) (setting [13]) stood at 16 µM (≈ 5.77 µg/mL); in the assay on Mtb. Praha 131 (XDR-TB) (setting [14]), 32 µM (≈ 11.5 µg/mL).

With `C/C(=N\NC(=O)c1ccncc1)C(=O)Oc1ccccc1` [3b, Phenyl (E)-2-(2-isonicotinoylhydrazineylidene)propanoate], the MIC is 32 µM (≈ 9.07 µg/mL) in the assay on Mtb. 234/2005 (MDR-TB) (setting [1]); 32 µM (≈ 9.07 µg/mL) with Mtb. 234/2005 (MDR-TB) (setting [2]); 32 µM (≈ 9.07 µg/mL) in the assay on Mtb. 9449/2007 (MDR-TB) (setting [3]); 32 µM (≈ 9.07 µg/mL) in the assay on Mtb. 9449/2007 (MDR-TB) (setting [4]); 16 µM (≈ 4.53 µg/mL) with Mtb. Praha 1 (MDR-TB) (setting [5]); 16 µM (≈ 4.53 µg/mL) in the assay on Mtb. Praha 1 (MDR-TB) (setting [6]). Further, the MIC in the assay with Mtb. Praha 4 (MDR-TB) (setting [7]), in the assay with Mtb. Praha 4 (MDR-TB) (setting [8]), in the assay with Mtb. 7357/1998 (MDR-TB) (setting [9]), with Mtb. 7357/1998 (MDR-TB) (setting [10]), in the assay with Mtb. 8666/2010 (MDR-TB) (setting [11]) and with Mtb. 8666/2010 (MDR-TB) (setting [12]) was 16 µM (≈ 4.53 µg/mL) throughout. In addition, the MIC in the assay on Mtb. Praha 131 (XDR-TB) (setting [13]) and in the assay with Mtb. Praha 131 (XDR-TB) (setting [14]) was 16 µM (≈ 4.53 µg/mL) in each case.

Take `C/C(=N\NC(=O)c1ccncc1)C(=O)Oc1cccc2cccnc12` [3m, Quinolin-8-yl (E)-2-(2-isonicotinoylhydrazineylidene)propanoate]: the MIC in the assay on Mtb. 234/2005 (MDR-TB) (setting [1]), in the assay with Mtb. 234/2005 (MDR-TB) (setting [2]), in the assay on Mtb. 9449/2007 (MDR-TB) (setting [3]), in the assay with Mtb. 9449/2007 (MDR-TB) (setting [4]), with Mtb. Praha 1 (MDR-TB) (setting [5]) and in the assay with Mtb. Praha 1 (MDR-TB) (setting [6]) was 8 µM (≈ 2.67 µg/mL) in each case. Besides, the MIC with Mtb. Praha 4 (MDR-TB) (setting [7]), with Mtb. Praha 4 (MDR-TB) (setting [8]), in the assay on Mtb. 7357/1998 (MDR-TB) (setting [9]), in the assay on Mtb. 7357/1998 (MDR-TB) (setting [10]), in the assay on Mtb. 8666/2010 (MDR-TB) (setting [11]) and with Mtb. 8666/2010 (MDR-TB) (setting [12]) was 8 µM (≈ 2.67 µg/mL) each time. The MIC with Mtb. Praha 131 (XDR-TB) (setting [13]) and in the assay on Mtb. Praha 131 (XDR-TB) (setting [14]) was 8 µM (≈ 2.67 µg/mL) throughout.

For `COc1ccc(OC(=O)/C(C)=N/NC(=O)c2ccncc2)cc1` [3d, 4-Methoxyphenyl (E)-2-(2-isonicotinoylhydrazineylidene)propanoate], the MIC with Mtb. 234/2005 (MDR-TB) (setting [1]) turned out to be 16 µM (≈ 5.01 µg/mL); with Mtb. 234/2005 (MDR-TB) (setting [2]) it was 32 µM (≈ 10 µg/mL); in the assay with Mtb. 9449/2007 (MDR-TB) (setting [3]), 16 µM (≈ 5.01 µg/mL); in the assay with Mtb. 9449/2007 (MDR-TB) (setting [4]) it was 16 µM (≈ 5.01 µg/mL); in the assay with Mtb. Praha 1 (MDR-TB) (setting [5]) it was 8 µM (≈ 2.51 µg/mL); in the assay on Mtb. Praha 1 (MDR-TB) (setting [6]), 16 µM (≈ 5.01 µg/mL). In addition, the MIC in the assay with Mtb. Praha 4 (MDR-TB) (setting [7]) stood at 16 µM (≈ 5.01 µg/mL); in the assay with Mtb. Praha 4 (MDR-TB) (setting [8]) it was 32 µM (≈ 10 µg/mL); with Mtb. 7357/1998 (MDR-TB) (setting [9]), 16 µM (≈ 5.01 µg/mL); with Mtb. 7357/1998 (MDR-TB) (setting [10]), 16 µM (≈ 5.01 µg/mL); in the assay with Mtb. 8666/2010 (MDR-TB) (setting [11]), 8 µM (≈ 2.51 µg/mL); with Mtb. 8666/2010 (MDR-TB) (setting [12]), 16 µM (≈ 5.01 µg/mL). Besides, the MIC in the assay with Mtb. Praha 131 (XDR-TB) (setting [13]) was 8 µM (≈ 2.51 µg/mL); with Mtb. Praha 131 (XDR-TB) (setting [14]), 16 µM (≈ 5.01 µg/mL).

On to `C/C(=N\NC(=O)c1ccncc1)C(=O)Oc1ccc2ccccc2c1` [3j, Naphthalen-2-yl (E)-2-(2-isonicotinoylhydrazineylidene)propanoate], for which the MIC came out at 16 µM (≈ 5.33 µg/mL) in the assay on Mtb. 234/2005 (MDR-TB) (setting [1]); 32 µM (≈ 10.7 µg/mL) in the assay with Mtb. 234/2005 (MDR-TB) (setting [2]); 32 µM (≈ 10.7 µg/mL) with Mtb. 9449/2007 (MDR-TB) (setting [3]); 32 µM (≈ 10.7 µg/mL) with Mtb. 9449/2007 (MDR-TB) (setting [4]); 125 µM (≈ 41.7 µg/mL) in the assay on Mtb. Praha 1 (MDR-TB) (setting [5]); 125 µM (≈ 41.7 µg/mL) in the assay with Mtb. Praha 1 (MDR-TB) (setting [6]). Moreover, the MIC in the assay on Mtb. Praha 4 (MDR-TB) (setting [7]) was 32 µM (≈ 10.7 µg/mL); with Mtb. Praha 4 (MDR-TB) (setting [8]), 32 µM (≈ 10.7 µg/mL); with Mtb. 7357/1998 (MDR-TB) (setting [9]) it was 32 µM (≈ 10.7 µg/mL); in the assay on Mtb. 7357/1998 (MDR-TB) (setting [10]), 32 µM (≈ 10.7 µg/mL); in the assay with Mtb. 8666/2010 (MDR-TB) (setting [11]), 16 µM (≈ 5.33 µg/mL); in the assay with Mtb. 8666/2010 (MDR-TB) (setting [12]), 32 µM (≈ 10.7 µg/mL). Besides, the MIC in the assay on Mtb. Praha 131 (XDR-TB) (setting [13]) and in the assay with Mtb. Praha 131 (XDR-TB) (setting [14]) was 32 µM (≈ 10.7 µg/mL) throughout.
